A short description of data set [1]: Partition studies between organic solvent and water. It counts as physicochemical. As to conditions: for Number of volumes of organic solvent: to reach at least 95% of recovery using one volume of organic solvent each time relative to one volume of aqueous solution; for solubility in organic solvents: as compared to aqueous solvents; for amount of compound from aqueous phase / amount of compound from organic phase: 197 mg (cyclohexylidene) or 150 mg (isopropylidene) partitioned. How it is done: 1,2-O-Cyclohexylidene-6-deoxy-β-L-talofuranose (197 mg) was partitioned between water (10 mL) and methylene chloride (10 mL), layers separated and the residual amount of solutions in the separatory funnel were partitioned with extra amount of water (5 mL) and methylene chloride (5 mL). The combined organic phases were evaporated and dried in vacuo (50° C., <1 mbar, 1 hour) to give 140 mg of the title compound. The aqueous solution gave 53 mg after lyophilisation and drying in vacuo (50° C., <1 mbar, 2 hrs). Using the same procedure, partition between ethyl acetate and water provided 127 mg of the title compound from ethyl acetate phase and 70 mg from the aqueous phase.
Analogously, 1,2-O-isopropylidene-6-deoxy-β-L-talofuranose (150 mg) was partitioned between methylene chloride (24 mg) and aqueous phase (126 mg). Partition between ethyl acetate and water furnished 7 mg and 143 mg of the title compound, respectively.

Data set [2] in a line: shake-flask partition; gravimetric recovery from each phase. As to conditions: not told.
Setting [3] is: conclusion in words from partition results.
[4] abbreviates: solvent system ethyl acetate-water.

Broadly, the logP is the decadic logarithm of the partition coefficient of the neutral form, usually between octanol and water. A lower logP goes with lower lipophilicity.

As for `C[C@H](O)[C@H]1O[C@@H]2OC(C)(C)O[C@@H]2[C@@H]1O` [1,2-O-isopropylidene-6-deoxy-β-L-talofuranose], in data set [1] (CH2Cl2-water), the “Number of volumes of organic solvent” value is reported as 18. In addition, in data set [1] (setting [3]), the “affinity to organic solvents versus aqueous media” value is reported as “higher affinity to aqueous medium”, the “solubility in aqueous solutions” value is “highly soluble” and the “solubility in organic solvents” value was “almost insoluble”. Moreover, in data set [1] (ethyl acetate-water), the “amount of compound from aqueous phase” value was 143 mg, the “amount of compound from organic phase” value is 7 mg and the “Number of volumes of organic solvent” value came to 21. For the same compound, in data set [1] (methylene chloride-water), the “amount of compound from aqueous phase” value is 126 mg and the “amount of compound from organic phase” value is reported as 24 mg. In data set [1] (solvent system CH2Cl2-water), the “Partition P (=[C]org/[C]aq)” value is 0.19. Further, the “Partition P (=[C]org/[C]aq)” value in data set [1] (setting [4]) is 0.16. Besides, in data set [2], the “log partition ethyl acetate / water” value is 0.16 concentration ratio (mass-based) and the “log partition methylene chloride (CH2Cl2) / water” value is given as 0.19 concentration ratio (mass-based).

On to `C[C@H](O)[C@H]1O[C@@H]2OC3(CCCCC3)O[C@@H]2[C@@H]1O` [1,2-O-Cyclohexylidene-6-deoxy-β-L-talofuranose], for which, in data set [1] (CH2Cl2-water), the “Number of volumes of organic solvent” value came to 3. Further, in data set [1] (setting [3]), the “affinity to organic solvents versus aqueous media” value is reported as “higher affinity to organic solvents as compared to aqueous media” and the “solubility in organic solvents” value was “much higher solubility”. Also, in data set [1] (ethyl acetate-water), the “amount of compound from aqueous phase” value is listed as 70 mg, the “amount of compound from organic phase” value is recorded as 127 mg and the “Number of volumes of organic solvent” value amounted to 3. For the same compound, in data set [1] (methylene chloride-water), the “amount of compound from aqueous phase” value came to 53 mg and the “amount of compound from organic phase” value is 140 mg. Further, in data set [1] (solvent system CH2Cl2-water), the “Partition P (=[C]org/[C]aq)” value was found to be 2.64 and the lipophilicity (logP) was found to be 0.42. Moreover, in data set [1] (setting [4]), the “Partition P (=[C]org/[C]aq)” value turned out to be 1.81 and the logP stood at 0.26.

The record behind these values is patent publication US20140235840A1, “NEW SYNTHESIS OF FUCOSE” (GLYCOM A/S, priority 2011, published 2014).
